Read-outs that look alike come from different tables or passages of the source.
How the values were obtained:
protein kinase C = details: (−)-enantiomer; cited from earlier work
[1] = (−)-enantiomer; cited from earlier work
Adult Wistar rats = experiment: Open-space-swimming test; type: in vivo, rat; details: for percentages of decreases in the distance moved on the third day (using the decrease of control groups as 100%): 10 mg/kg×3 per day i.p., n=8; for mobility (distance moved) / immobility compared with control group: 10 mg/kg×3 per day, 23, 2 and 1 h before trial sessions, saline control
Experimental: Adult Wistar rats (180-200 g) were housed in a temperature-controlled (20-24° C.) room for at least a week prior to experimentation, allowed free access to food and water, and kept on a 12-h light/dark cycle. They were randomly assigned to different groups (eight each) and were moved to the test room in their home cages at least 1 h before trials. Rats were individually placed into a round pool with a diameter of 152 cm and height of 60 cm and was filled with 40 cm H2O (22±1° C.). The room and pool are part of the started set-up used for spatial water maze task. (Sun et al. (2002) J. Pharmacol. Exp. Ther. 300: 408-416). The tests for different drug treatment and control groups were in a counterbalanced order. No escape was available in these trials. Rats were free to swim (or not to swim) for 15 min and then removed and returned to their home cage after drying. Observers were obscured from sight of the rats during the trials, but were able to observe the animals' behaviors on a video screen monitor during trials. The same procedure (15 min session per day) was repeated 24 h later and continued for 3 additional days. Drugs were dissolved in a saline solution for test groups and saline alone was used in the control groups. Imipramine (10 mg/kg×3 day, i.p.), iproniazid (10 mg/kg×3 per day, i.p.), mianserin (10 mg/kg×3 per day, i.p.), alaproclate (10 mg/kg×3 per day), or saline were administered between the swimming trial sessions at 23, 2, and 1 h before the second, third, and fourth trial sessions, respectively. The rationale for the three doses before test trials is the more consistent predictive effects than those of a single dose (Porsolt et al. (1977) Nature 266: 730-730-732; Porsolt et al. (1978) Eur J. Pharmacol. 47: 379-391; Poncelet et al, (1986) Psychopharmacology 90: 139-141). The swimming/drifting path was recorded with a video-tracking system that was also used for the spatial water maze task in other studies (Sun et al., 2002; Sun and Alkon, 2002a). The system tracks the animal's position by recording sequential x/y-coordinates of trigger events (video signal above track level) and calculating the distance, in the pool (sample period: 0.055 s) and adds the distance at pre-set intervals (15 min) during each trial. The tracking system, however, neither distinguishes nor determines the duration of any period of mobility or immobility. To evaluate whether the distance moved, as recorded by the tracking system, reflects the duration of active swimming, the investigator(s) also recorded the duration of active swimming on-line via the video screen monitor for a direct comparison of the two parameters.
Depressive behavior in rats was induced by placing the animals in an open-space swimming apparatus, as described herein, for 15 minutes per trial per day. The animals were subjected to three trials over the course of three days. The animals were divided into three groups: control rats (8); phenylalanine rats (10); and imipramine rats (10). The control rats received a single i.v. dose of saline in the tail vein, 3.5 hours before the second trial. […] Rats in the imipramine group received 3 i.p. doses (10 mg/kg) at 23, 2 and 1 hour before the first, second and third trials, respectively.
Depressive behavior in rats was induced by placing the animals in an open-space swimming apparatus, as described herein, for 15 minutes per trial per day. The animals were subjected to three trials over the course of three days. […] The control rats received a single i.v. dose of saline in the tail vein, 3.5 hours before the second trial.

rats = details: forced swimming test, 15 mg/kg×3 per day i.p., n=5; cited from earlier work
PKC [2] = details: competes with [3H]phorbol dibutyrate; read-out: Ki for binding; cited from earlier work
[3] = tested on: squamous cell carcinoma and melanoma; details: used topically; cited from earlier work
humans = details: cited from earlier work
NCI 60 cell line screen = details: cited from earlier work
PKCa = PKCa (Homo sapiens, UniProt P17252); details: cited from earlier work
PKC [4] = details: cited from earlier work
PKC [5] = details: cited from earlier work; remark: listed apart in the source
[6] = tested on: murine leukemias and solid tumors; details: cited from earlier work
PKC [7] = details: K562 cells; cited from earlier work
[8] = tested on: cyclin dependent kinase 2 (Cdk2); details: at 5 ng/ml; cited from earlier work
PKCε = biological target: T1, PKCε (Homo sapiens, UniProt Q02156); details: cited from earlier work
T1 sequence (Q02156 1-737): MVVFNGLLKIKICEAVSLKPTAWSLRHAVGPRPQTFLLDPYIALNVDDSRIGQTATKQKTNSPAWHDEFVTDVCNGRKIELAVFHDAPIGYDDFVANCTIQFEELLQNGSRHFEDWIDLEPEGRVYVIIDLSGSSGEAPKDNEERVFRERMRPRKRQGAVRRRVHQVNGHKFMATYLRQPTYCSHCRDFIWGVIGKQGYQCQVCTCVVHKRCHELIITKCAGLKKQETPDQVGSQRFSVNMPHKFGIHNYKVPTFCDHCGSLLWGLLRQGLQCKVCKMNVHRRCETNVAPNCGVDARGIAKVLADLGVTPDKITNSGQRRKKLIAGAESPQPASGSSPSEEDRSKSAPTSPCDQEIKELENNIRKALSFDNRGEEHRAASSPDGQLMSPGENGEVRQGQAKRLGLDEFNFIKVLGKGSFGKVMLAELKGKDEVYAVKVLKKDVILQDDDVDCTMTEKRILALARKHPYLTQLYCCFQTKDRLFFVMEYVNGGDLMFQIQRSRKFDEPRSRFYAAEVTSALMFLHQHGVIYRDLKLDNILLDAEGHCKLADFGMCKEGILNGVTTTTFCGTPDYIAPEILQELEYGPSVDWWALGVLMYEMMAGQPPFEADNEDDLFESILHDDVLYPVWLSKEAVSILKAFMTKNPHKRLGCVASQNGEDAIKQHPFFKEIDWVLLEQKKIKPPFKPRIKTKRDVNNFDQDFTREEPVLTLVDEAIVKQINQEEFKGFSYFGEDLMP

[9] = Examples 7-13, present tense, no dose, no data

Molecule: CCCCCCCCc1ccc2c3c(c[nH]c13)C[C@@H](CO)NC(=O)[C@H](C(C)C)N2C [octylindolactam V, Octylindolactam V]
- EC50 (protein kinase C): 29 nM
- metabolic stability [1]: greater metabolic stability

Molecule: N[C@@H](Cc1ccc(F)cc1)C(=O)O [Effector 5, 4-fluoro phenylalanine]
- immobility compared with control group and imipramine group (Adult Wistar rats; [9]): effective in reducing immobility

Molecule: CN(C)CCCN1c2ccccc2CCc2ccccc21 [imipramine]
- percentages of decreases in the distance moved on the third day (using the decrease of control groups as 100%) (Adult Wistar rats; rats): 49.8±7.6%
- immobility % as control (rats): 61.5±6.5%

Molecule: CC1=C[C@]23C(=O)[C@@H](C=C(COC(=O)c4ccccc4)[C@@H](O)[C@]2(O)[C@H]1OC(=O)c1ccccc1)[C@H]1[C@@H](C[C@H]3C)C1(C)C [Ingenol 3,20-dibenzoate]
- Ki (PKC [2]): 240 nM

Molecule: c1c[nH]cn1 [Effector 14, Imidazole]
- immobility compared with control group and imipramine group (Adult Wistar rats; [9]): effective in reducing immobility

Molecule: C/C=C(/C)C(=O)O[C@H]1C(C)=C[C@]23C(=O)[C@@H](C=C(CO)[C@@H](O)[C@]12O)[C@H]1[C@@H](C[C@H]3C)C1(C)C [Ingenol-3-angelate]
- antitumor activity [3]: possesses antitumor activity

Molecule: CCC/C=C/C=C/C(=O)O[C@H]1/C(=C/C(=O)OC)C[C@H]2C[C@H]([C@@H](C)O)OC(=O)C[C@H](O)C[C@@H]3C[C@H](OC(C)=O)C(C)(C)[C@](O)(C[C@@H]4C/C(=C/C(=O)OC)C[C@H](/C=C/C(C)(C)[C@]1(O)O2)O4)O3 [Bryostatin 1, bryostatin-1]
- difference from imipramine group (10 mg/kg i.p. ×3) (Adult Wistar rats; rats, single i.v. dose 80 μg/kg): No significant difference
- immobility compared with control group and imipramine group (Adult Wistar rats; rats, single i.v. dose 80 μg/kg in the tail vein 3.5 hours before the second trial): effective in reducing immobility
- main adverse reaction (humans): myalgia

Molecule: N[C@@H](Cc1ccc(O)cc1)C(=O)O [Effector 4, 4-hydroxy phenylalanine]
- immobility compared with control group and imipramine group (Adult Wistar rats; [9]): effective in reducing immobility

Molecule: CC(N)C(=O)OC(C)(C)Cc1ccc(Cl)cc1 (stereo not drawn) [Alaproclate, alaproclate]
- duration of active swimming compared with control group (Adult Wistar rats; rats, 10 mg/kg×3 per day): significantly longer
- mobility (distance moved) / immobility compared with control group (Adult Wistar rats; rats): effective in reducing the immobility

Molecule: CC1=CC[C@H](C)C(C)(C)[C@@H]1/C=C/C(C)=C/CC[C@@]1(CO)[C@H](CCCO)/C(=C(/C)C=O)CC[C@]1(C)O [Iripallidal]
- GI50 (concentration required to inhibit growth by 50%) (NCI 60 cell line screen): from micromolar to nanomolar range
- Ki (PKCa): 75.6 nM

Molecule: CCCCCCCNS(=O)(=O)c1cccc2c(Cl)cccc12 [SC-10, N-(n-heptyl)-5-chloro-1-naphthalenesulfonamide]
- activation of PKC (PKC [4]): activates PKC in a calcium-dependent manner

Molecule: CCCCCCCC(=O)O[C@H]1/C(=C/C(=O)OC)C[C@H]2C[C@H](CO)OC(=O)C[C@H](O)C[C@@H]3CCC[C@H](C[C@@H]4CCO[C@H](/C=C/C(C)(C)[C@]1(O)O2)O4)O3 [Analog 1]
- affinity for PKC (in words) (PKC [5]): highest affinity for PKC
- potency relative to bryostatin-1 (PKC [5]): about 100 times
- Ki (PKC [5]; read-out: PKC Affin): 0.25 nM

Molecule: CN1CCN2c3ccccc3Cc3ccccc3C2C1 (stereo not drawn) [mianserin]
- percentages of decreases in the distance moved on the third day (using the decrease of control groups as 100%) (Adult Wistar rats; rats): 33.3±6.3%
- immobility % as control (rats): 66.5±7.0%

Molecule: C=C(C)[C@]12C[C@@H](COC(=O)c3ccccc3)[C@@]34OC5(O[C@@H]1[C@@H]3C1O[C@]1(CO)[C@@H](O)[C@@]1(O)[C@H]4[C@@H](C(C)CCCCCC[C@@H]5O)C(C)[C@@H]1OC(=O)c1ccccc1)O2 (stereo partly drawn) [Gnidimacrin]
- concentrations of potent antitumor activity [6]: 0.1 to 1 nM
- concentration at which it acts as a PKC activator (PKC [7]): ≈ 3 nM
- inhibition of Cdk2 [8]: 100%

Molecule: CCCCCC1CC1CC1CC1CCCCCCCC(=O)O (stereo not drawn) [DCP-LA, 2-[(2-pentylcyclopropyl)methyl]cyclopropaneoctanoic acid]
- concentration of maximal effect (PKCε; activation of PKCε): 100 nM
- isoform selectivity of PKC activation (PKCε): selectively activates PKCε

Molecule: CCCCCCCC(=O)OC1C(=CC(=O)OC)CC2CC(CO)OC(=O)CC(O)CCOC(C(C)(C)C)CC3CCOC(C=CC(C)(C)C1(O)O2)O3 (stereo not drawn) [bryolog 3]
- Ki (PKC [5]; A-ring bryologs, read-out: affinity for PKC): 6.5 nM

Molecule: CC(C)NNC(=O)c1ccncc1 [iproniazid]
- percentages of decreases in the distance moved on the third day (using the decrease of control groups as 100%) (Adult Wistar rats; rats): 44.0±7.7%
- mobility (distance moved) / immobility compared with control group (Adult Wistar rats; rats): appeared more effective at the dose given than mianserin and imipramine
- immobility % as control (rats): 87.6±7.3%

Molecule: N[C@@H](Cc1ccccc1)C(=O)O [Effector 2, phenylalanine]
- immobility compared with control group and imipramine group (Adult Wistar rats; rats, single i.v. dose in the tail vein 3.5 hours before the second trial): effective in reducing the immobility

B1: FGF-18: peptide consisting of 207 amino acids, member of the fibroblast growth factor family (protein, UniProt O76093 28-207, looked up)
Fibroblast growth factor 18: EENVDFRIHVENQTRARDDVSRKQLRLYQLYSRTSGKHIQVLGRRISARGEDGDKYAQLLVETDTFGSQVRIKGKETEFYLCMNRKGKLVGKPDGTSKECVFIEKVLENNYTALMSAKYSGWYVGFTKKGRPRKGPKTRENQQDVHFMKRYPKGQPELQKPFKYTTVTKRSRRIRPTHPA
- immobility compared with control group and imipramine group (Adult Wistar rats; [9]): effective in reducing immobility
